The test system of experiment [1] is HGC27 (Human Gastric Cancer Cell). The experiment in a line: Bioactivity assay for HGC27 cell growth inhibition (CellTiter-Glo). The experiment is classed as cell-based. Particulars: read-out: HGC27 CTG IC50. As to the method:
This detection method is used to evaluate the biological activity of the compounds of the present disclosure at the cellular level.
(§1) HGC27 cells (purchased from the Chinese Academy of Sciences) were harvested, resuspended in complete medium and adjusted to a cell density of 0.2×10^6 cells per ml. The cell suspension was added to a 96-well plate at a volume of 100 μL per well and cultured overnight in a 37° C., 5% CO2 incubator. Prepare the test compound and add it to the cell plate so that the highest concentration of the compound is 10 μM. Set 8 concentration points according to 3-fold dilution. At the same time, 100% inhibition control wells were set, that is, wells with no cells but only an equal volume of complete culture medium; and 0% inhibition control wells, that is, wells with cells added with 0.1% DMSO. The cell plate was cultured at 37° C. and 5% CO2 for 24 hours. Remove the cell culture plate and add 25 μl CellTiter-Glo® Luminescent Cell Viability Reagent (promega cat #G7573) to each well. Incubate in the dark for 10 minutes and then transfer 100 μL to a white plate and use Molecular Devices SpectraMax i3 to detect chemiluminescence. The inhibition rate was calculated using the following formula for data processing: compound inhibition rate=(0% inhibition control well signal−compound treatment well signal)/(0% inhibition control well signal−100% inhibition control well signal)*100%. The calculated data were fitted with four parameters using GraphPad Prism software and the corresponding IC50 was calculated.

Experiment [2] deals with NCI-N87 (Human Gastric Cancer Cell). The experiment in a line: Bioactivity detection of NCI-N87 cell growth inhibition (CellTiter-Glo). Particulars: NCI-N87 cells, 72 hours, highest concentration 10 μM, read-out: N87 CTG IC50. The experiment is classed as cell-based. As to the method: This detection method is used to evaluate the biological activity of the compounds described in this disclosure at the cellular level.
as §1, with “NCI-N87” for “HGC27”, “0.1×10^6” for “0.2×10^6”, “72” for “24”, “CellTiter-Glo” for “CellTiter-Glo®”, “signal)[…].” for “signal)*100%.”
Background: Cellular ATP, detected with luciferase, serves as a proxy for viable cell number.

[3] abbreviates: HGC-27, HGC27 cells, 24 hours, CellTiter-Glo, highest concentration 10 μM.

Read-outs that look alike come from different tables or passages of the source.

A word on the IC50: it is the concentration at which inhibition is half-maximal.

For the molecule `CC(C)(C)[C@@H](Nc1nc(NCc2ccc3c(c2)[nH]c2c(CN)ccnc23)ncc1C(F)(F)F)C(N)=O` [Compound 55], the IC50 in experiment [1] (HGC-27, 24 h) came out at 26 nM; in experiment [2], 19 nM.
For the molecule `CO[C@@H](C)[C@H](C#N)Nc1nc(NCc2ccc3c(c2)[nH]c2c(CO)ccnc23)ncc1C(F)(F)F` [Compound 71], the concentration for half-maximal inhibition (IC50) was determined as 68 nM in experiment [1] (setting [3]) and 8.6 nM in experiment [2].
Take `CO[C@@H](C)[C@@H](Nc1nc(NCc2ccc3c(c2)nn2c(CO)ccnc32)ncc1C(F)(F)F)C(N)=O` [Compound 79]: the concentration for half-maximal inhibition (IC50) in experiment [1] (setting [3]) came out at 38 nM; in experiment [2] it was 9 nM.
Regarding `NCc1ccnc2c1[nH]c1cc(CNc3ncc(C(F)(F)F)c(N[C@@H](C(N)=O)C4CC4)n3)ccc12` [Compound 42], the IC50 in experiment [1] (setting [3]) was determined as 20 nM; in experiment [2], 13 nM.
In the case of `C[C@@H](N)[C@@H](C)Oc1nc(NCc2ccc3c(c2)[nH]c2c(CO)ccnc23)ncc1C(F)(F)F` [Compound 90], the IC50 in experiment [1] (setting [3]) turned out to be 4.9 nM; in experiment [2], 6 nM.
On to `N#Cc1ccnc2c1[nH]c1cc(CNc3ncc(C(F)(F)F)c(N[C@@H]4CNCC[C@H]4O)n3)ccc12` [Compound 85], for which the 50% inhibitory concentration (IC50) is 17 nM in experiment [1] (HGC-27, 24 h) and 8.5 nM in experiment [2].
Consider `CO[C@@H](C)[C@@H](Nc1nc(NCc2ccc3c(c2)[nH]c2c(CN)ccnc23)ncc1C(F)(F)F)C(N)=O` [Compound 57], for which the figures for the IC50 in experiment [1] (setting [3]) and in experiment [2] were 14 nM and 11 nM, respectively.
For `C[C@@H](O)[C@@H](C)Nc1nc(NCc2ccc3c(c2)[nH]c2c(CN)ccnc23)ncc1C(F)(F)F` [Compound 34], the half-inhibitory concentration (IC50) in experiment [1] (setting [3]) was determined as 7 nM; in experiment [2], 1.7 nM.
Regarding `OCc1ccnc2c3ccc(CNc4ncc(C(F)(F)F)c(OC5COC5)n4)cc3nn12` [Compound 39], the half-maximal inhibitory concentration (IC50) stood at 54 nM in experiment [1] (setting [3]) and 9 nM in experiment [2].
Take `C[C@@H](O)[C@@H](C)Nc1nc(NCc2ccc3c(c2)nn2c(CN)ccnc32)ncc1C(F)(F)F` [Compound 63]: the IC50 in experiment [1] (setting [3]) was found to be 20 nM; in experiment [2], 15 nM.
On to `CC(C)[C@@H](Nc1nc(NCc2ccc3c(c2)[nH]c2c(CN)ccnc23)ncc1C(F)(F)F)C(N)=O` [Compound 48], for which the IC50 stood at 53 nM in experiment [1] (setting [3]) and 20 nM in experiment [2].
With `C[C@@H](O)[C@@H](CO)Nc1nc(NCc2ccc3c(c2)[nH]c2c(C#N)ccnc23)ncc1C(F)(F)F` [Compound 73], the half-inhibitory concentration (IC50) amounted to 6 nM in experiment [1] (setting [3]) and 3 nM in experiment [2].
Consider `CC(C)(O)[C@@H](Nc1nc(NCc2ccc3c(c2)[nH]c2c(CN)ccnc23)ncc1C(F)(F)F)C(N)=O` [Compound 58], for which the 50% inhibitory concentration (IC50) was 114 nM in experiment [1] (setting [3]) and 58 nM in experiment [2].
For `CC[C@@H](Nc1nc(NCc2ccc3c(c2)nn2c(CO)ccnc32)ncc1C(F)(F)F)C(N)=O` [Compound 40], the half-inhibitory concentration (IC50) is 121 nM in experiment [1] (setting [3]) and 7 nM in experiment [2].
The corresponding values for `OCc1ccnc2c1[nH]c1cc(CNc3ncc(C(F)(F)F)c(N[C@@H]4CNCC[C@@H]4O)n3)ccc12` [Compound 75] are 38 nM and 22 nM.
Turning to `CC[C@@H](Oc1nc(NCc2ccc3c(c2)[nH]c2c(CN)ccnc23)ncc1C(F)(F)F)C(N)=O` [Compound 84], the IC50 came out at 409 nM in experiment [1] (setting [3]) and 85 nM in experiment [2].
The corresponding values for `CO[C@@H](C)[C@@H](Nc1nc(NCc2ccc3c(c2)[nH]c2c(CO)ccnc23)ncc1C(F)(F)F)C(N)=O` [Compound 82] are 28 nM and 6 nM.
Consider `Cc1ccnc2c1[nH]c1cc(CNc3ncc(C(F)(F)F)c(N[C@H](C)[C@@H](C)O)n3)ccc12` [Compound 68], for which the results for the half-maximal inhibitory concentration (IC50) in experiment [1] (setting [3]) and in experiment [2] were 36 nM and 1 nM, respectively.
As for `NCc1ccnc2c1[nH]c1cc(CNc3ncc(C(F)(F)F)c(N[C@H](CC4CC4)C(N)=O)n3)ccc12` [Compound 53], the concentration for half-maximal inhibition (IC50) in experiment [1] (setting [3]) is 29 nM; in experiment [2], 48 nM.
In the case of `Cc1ccnc2c1[nH]c1cc(CNc3ncc(C(F)(F)F)c(N[C@@H]4CNCC[C@@H]4O)n3)ccc12` [Compound 83], the 50% inhibitory concentration (IC50) in experiment [1] (setting [3]) and in experiment [2] was 8 nM throughout.
For the molecule `CC[C@@H](Nc1nc(NCc2ccc3c(c2)nn2c(CN)ccnc32)ncc1C(F)(F)F)C(N)=O` [Compound 62], the IC50 was found to be 70 nM in experiment [1] (setting [3]) and 48 nM in experiment [2].
The corresponding values for `NCc1ccnc2c1[nH]c1cc(CNc3ncc(C(F)(F)F)c(N[C@@H](C(N)=O)C4CCCC4)n3)ccc12` [Compound 52] are 39 nM and 32 nM.
The corresponding values for `CO[C@@H](C)[C@@H](Nc1nc(NCc2ccc3c(c2)[nH]c2c(C#N)ccnc23)ncc1C(F)(F)F)C(N)=O` [Compound 67] are 14 nM and 2.5 nM.
On to `N#Cc1ccnc2c1[nH]c1cc(CNc3ncc(C(F)(F)F)c(O[C@@H]4CNC[C@@H]4O)n3)ccc12` [Compound 91], for which the figures for the IC50 in experiment [1] (setting [3]) and in experiment [2] were 14 nM and 5.3 nM, respectively.
As to `N#Cc1ccnc2c1[nH]c1cc(CNc3ncc(C(F)(F)F)c(N[C@@H]4CN(CCO)CC[C@@H]4O)n3)ccc12` [Compound 94], the half-inhibitory concentration (IC50) in experiment [1] (setting [3]) was determined as 9 nM; in experiment [2] it was 3.7 nM.
Take `FC(F)(F)c1cnc(NCc2ccc3c(c2)[nH]c2cccnc23)nc1OC1COC1` [Compound 2]: the results for the IC50 in experiment [1] (setting [3]) and in experiment [2] were 139 nM and 26 nM, respectively.
For `CCC[C@@H](Nc1nc(NCc2ccc3c(c2)[nH]c2c(CN)ccnc23)ncc1C(F)(F)F)C(N)=O` [Compound 54], the concentration for half-maximal inhibition (IC50) in experiment [1] (setting [3]) and in experiment [2] was 32 nM each time.
Take `CC[C@@H](Nc1nc(NCc2ccc3c(c2)[nH]c2c(CN)ccnc23)ncc1C(F)(F)F)C(N)=O` [Compound 33]: the figures for the IC50 in experiment [1] (setting [3]) and in experiment [2] were 32 nM and 10 nM, respectively.
Turning to `N#Cc1ccnc2c1[nH]c1cc(CNc3ncc(C(F)(F)F)c(N[C@@H]4CN(C(=O)CN)CC[C@@H]4O)n3)ccc12` [Compound 87], the IC50 in experiment [1] (setting [3]) and in experiment [2] was 12 nM in each case.
`C[C@@H](O)[C@H](Nc1nc(NCc2ccc3c(c2)[nH]c2c(C#N)ccnc23)ncc1C(F)(F)F)C(N)=O` [Compound 95]: the IC50 came out at 3 nM in experiment [1] (HGC-27, 24 h) and 8 nM in experiment [2].
Turning to `OCc1ccnc2c3ccc(CNc4ncc(C(F)(F)F)c(N[C@@H]5CNCC[C@@H]5O)n4)cc3nn12` [Compound 80], the results for the IC50 in experiment [1] (setting [3]) and in experiment [2] were 41 nM and 5.4 nM, respectively.

For the origin of these results see US20260209211A1, “CYCLIN K DEGRADER AND USE THEREOF” (ADLAI NORTYE BIOPHARMA CO., LTD., priority 2022, published 2026).
